Test results as given in paper PMC6753678, “Fueling Open Innovation for Malaria Transmission-Blocking Drugs: Hundreds of Molecules Targeting Early Parasite Mosquito Stages” (Frontiers in Microbiology, 2019).
Like-named read-outs stand apart in the source and are kept apart here.

Assays:
[1] = test system: P. berghei ookinete development; conditions: for % inhibition, Replicate A / % inhibition, Replicate B: primary screen at 1 μM
[2] = test system: 3D7-strain P. falciparum asexual parasites; assay: P. falciparum asexual growth inhibition assay (Pf GIA); format: cell-based, Plasmodium falciparum; conditions: dose response confirmation; read-out: Pf asexual growth inhibition assays IC50
Outline: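 Parasites at 0.25% parasitemia, 2% hematocrit in Albumax-supplemented RPMI were exposed to compounds in dose response for 72 h at 37°C under 5% CO2/5% O2. Viability was read as LDH activity (NBT/diaphorase, A650 after freeze-thaw). Percent inhibition was calculated against chloroquine and DMSO controls, mean of three biological replicates.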

[3] = test system: HepG2 cells; assay: HepG2 cytotoxicity assay; conditions: for Pb ODA (this manuscript) HepG2 cytoxicity: HepG2 cytotoxicity listed with the Pb ODA data set (this manuscript); for IC50: read-out: HepG2 cytotoxicity assay IC50, dose response confirmation
Outline: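 Here viability after a 48 h compound incubation (37°C, humidified 5% CO2) is measured by fluorescence and expressed as percent inhibition, with doxorubicin at 50 μM and DMSO as the bounding controls.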

[4] = read-out: Pb ODA (this manuscript) IC50, P. berghei ookinete development assay, this manuscript
[5] = read-out: Pb Ookinete development assay IC50, dose response confirmation
[6] = read-out: Pb ODA IC50, this manuscript
[7] = unified HepG2 value across the three screens
[8] = HepG2 values of the three screens unified

Structure (SMILES)	Is compound selective in assay? Pb ODA active? [1]	% inhibition, Replicate A [1] [%]	% inhibition, Replicate B [1] [%]	IC50 [1, 4] [µM]	IC50 [1, 5] [µM]	IC50 [2] [µM]	Pb ODA (this manuscript) HepG2 cytoxicity [3] [µM]	IC50 [3] [µM]	Is compound selective in assay? Pb ODA active? ([1]; 1: YES, 0: NO)	IC50 [1, 6] [µM]	Unified cytotox [3, 7] [µM]	HepG2 cytoxicity (Pb ODA, this manuscript) [3] [µM]	Unified cytotox [3, 8] [µM]
COc1ccc2nc3cc(Cl)ccc3c(NCCO)c2c1.Cl [TCMDC-124272]	1 (key: 1: YES; 0: NO)	66.85	79.62	0.84	0.843	0.404	15.67	15.7					
CCCCOc1cc2ncc(C(=O)OCC)c(O)c2cc1OCCCC [TCMDC-137523]		74.60	95.02		2.19	0.063		100	1 (1: YES)	2.19	100.00		
COc1ccc2nccc([C@@H](O)CN3CCC(NC(=O)/C=C/c4c[nH]c5c(C)cccc45)CC3)c2c1 [TCMDC-141000]		72.27	60.86		1.9	0.433		51.3	1 (1: YES)	1.9		51.29	51.29
Cc1[nH]c(C)c(-c2ccc(-c3ccc4c(c3)OCO4)nc2)c(=O)c1Br [TCMDC-136161]		101.58	91.12		1.43	0.646		100	1 (1: YES)	1.43			100.00
O=C(c1cc(-c2ccco2)[nH]n1)N1CCN(S(=O)(=O)c2ccc(Br)cc2)CC1 [TCMDC-124699]	1 (key: 1: YES; 0: NO)	66.14	59.38		1.02	0.178	100.00	100					
Cc1[nH]c(C)c(-c2ccc(OCc3ccc(F)cc3)cc2)c(=O)c1Br [TCMDC-138928]	1 (key: 1: YES; 0: NO)	93.24	106.54	0.6	0.595	0.108	100.00	100					
Cc1cc(NC(c2ccc(Cl)cc2)c2ccc3cccnc3c2O)no1 (stereo not drawn) [TCMDC-123828]		41.30	61.82		3.02	2.55		1.38	0 (0: NO)	3.02	1.38		
COc1ccc2nccc(N3CCC(CCNCc4ccc5c(n4)NC(=O)CS5)CC3)c2n1.Cl [TCMDC-141944]		58.34	37.24		8.88	0.16		14.8	0 (0: NO)	8.88		14.79	14.79
COc1cc(NC(=O)Nc2ccc(Br)cc2C(=O)Nc2ccc(Br)cc2)cc(OC)c1OC [TCMDC-139733]		44.63	66.05		6.38	2.09		100	1 (1: YES)	6.38	100.00		
Cc1[nH]c2ccccc2c(=O)c1Br [TCMDC-137427]	1 (key: 1: YES; 0: NO)	55.99	67.98		1.6	3.39	100.00	100					
CC(=O)c1ccc(Nc2c(C(N)=O)cnc3cc(-c4c(C)noc4C)ccc23)cc1 [TCMDC-136058]	1 (key: 1: YES; 0: NO)	86.92	80.92	3.2	3.2	1.35	100.00	100					
COc1cc(F)c2ncc(C#N)c(CCN3CCC(NCc4ccc5c(c4)OCCO5)CC3)c2c1.Cl [TCMDC-135367]		88.34	59.17		2.17	0.64		38.9	1 (1: YES)	2.17	38.90		
CCCCCCCCCc1c(C)[nH]c2ccccc2c1=O [TCMDC-137268]	1 (key: 1: YES; 0: NO)	77.84	91.25	0.39	0.386	0.168	67.61	67.6					
Cc1cccc2nc(-c3ccc(-c4ccc(CN5CCOCC5)cc4)cc3)[nH]c12.O=C(O)C(F)(F)F [TCMDC-133825]	1 (key: 1: YES; 0: NO)	75.48	125.42	0.63	0.635	2.23	27.54	27.5					
O=C(c1cc(-c2ccco2)[nH]n1)N1CCN(S(=O)(=O)c2ccc(Cl)cc2)CC1 [TCMDC-124698]	1 (key: 1: YES; 0: NO)	67.42	51.92	1.12	1.12	0.563	100.00	100					
CN(C)S(=O)(=O)n1ncc2c3c(N)nc(N)nc3ccc21.Cl [TCMDC-131933]	0 (key: 1: YES; 0: NO)	39.05	54.28	0.54	0.539	0.023	0.001	0.001					
O=c1nc(C=Cc2ccc(Br)cc2)oc2ccccc12 [TCMDC-123878]	1 (key: 1: YES; 0: NO)	55.97	32.93	2.72	2.71	1.73	100.00	100					
Cc1[nH]c(C)c(-c2ccc(-c3ccc(C(F)(F)F)cc3C(F)(F)F)nc2)c(=O)c1Br [TCMDC-136013]		94.49	93.70		0.185	0.154		7.41	1 (1: YES)	0.19		7.41	7.41
CCCCCCc1c(C)nc2cc(OC)ccc2c1O [TCMDC-138010]	1 (key: 1: YES; 0: NO)	110.05	119.15	0.08	0.081	0.163	100.00	100					
Cc1[nH]c(C)c(-c2ccc(-c3cccc(OC(F)(F)F)c3)nc2)c(=O)c1Cl [TCMDC-136286]		104.87	108.75		0.303	0.258		8.51	1 (1: YES)	0.3		8.51	8.51
Cc1[nH]c(C)c([N+](=O)[O-])c(=O)c1-c1ccc(Oc2ccc(OC(F)(F)F)cc2)cc1 [TCMDC-135555]	1 (key: 1: YES; 0: NO)	67.14	51.32	2.81	2.81	0.177	100.00	100					
Cc1nc2nc(N)nc(N)c2c(C)c1Cc1ccccc1.Cl [TCMDC-137670]	0 (key: 1: YES; 0: NO)	51.61	57.72	3.02	3.02	0.169	0.03	0.03					
Nc1nc(N)c2c(ccc3c2ccn3CCCCO)n1 [TCMDC-137959]		70.70	40.44		3.09	0.061		0.0759	0 (0: NO)	3.09		0.0759	0.0759
COc1ccc(Cc2c(N)nc3nc(N)nc(N)c3c2C)cc1.Cl [TCMDC-138061]	0 (key: 1: YES; 0: NO)	-0.33	51.34	5.18	5.18	0.142	0.055	0.055					
Cc1cc(O)c(-c2ccc(Oc3ccc(F)cc3)cc2)c(C)n1 [TCMDC-137535]		57.60	38.98		0.583	1.03		0.28	0 (0: NO)	0.58		0.28	0.28
